The values below come from patent US9452990B2, “Complement pathway modulators and uses thereof” (NOVARTIS AG, priority 2012, dated 2016).

Broadly, the IC50 is the concentration needed to halve the response being measured.

Structures can show the parent of a compound that is named as a salt. Where two headings read alike, the source gives them in different places.

The test concerns the target human complement factor B (CVF-Bb complex) (Homo sapiens (Human), UniProt P00751). Put plainly: Human Complement Factor B ELISA Assay. Format: biochemical. The protocol:
Human Complement Factor B ELISA Assay
CVF-Bb complex prepared from purified cobra venom factor (1 μM), recombinant human complement factor B (expressed in drosophila cells and purified using standard methods) and human complement factor D (expressed in E. Coli, refolded and purified using standard methods). CVF-Bb complex at 3 nM concentration was incubated with test compound at various concentrations for 1 hour at room temperature in PBS pH 7.4 containing 10 mM MgCl2 and 0.05% (w/v) CHAPS. Human complement C3 substrate purified from plasma was added to a final concentration of 1 μM. After 1 hour incubation at room temperature, the enzyme reaction was stopped by addition of a cocktail of concentrated pan-protease inhibitors. The product of the reaction, C3a, was quantified by means of an enzyme-linked-immunosorbent assay. IC50 values were calculated from percentage of inhibition of CVF-Bb activity as a function of test compound concentration.
For orientation: In an ELISA, binding on a coated surface is turned into a signal by an enzyme label.

[1] abbreviates: CVF-Bb complex 3 nM, 1 hour preincubation with compound at room temperature, human C3 substrate 1 μM, C3a quantified by ELISA, read-out: Factor B IC50.

`COc1cc2c(N)nc(N3CCN(C(=O)C[C@@H](N)c4ccccc4F)C[C@@H]3C)nc2c(F)c1OC` [Example 59, (R)-3-Amino-1-[(S)-4-(4-amino-8-fluoro-6,7-dimethoxy-quinazolin-2-yl)-3-methyl-piperazin-1-yl]-3-(2-fluoro-phenyl)-propan-1-one hydrochloride] displayed an IC50 of 160 nM.
Still for that read-out and setting: in the case of `COc1cc2c(N)nc(N3CCN(C(=O)C[C@@H](N)c4ccc(F)cc4)C[C@@H]3C)nc2c(F)c1OC` [Example 60, (R)-3-Amino-1-[(S)-4-(4-amino-8-fluoro-6,7-dimethoxy-quinazolin-2-yl)-3-methyl-piperazin-1-yl]-3-(4-fluoro-phenyl)-propan-1-one hydrochloride] it was 20 nM; in that of `COc1cc2c(N)nc(N3CCN(C(=O)C[C@@H](N)c4ccc(C(F)(F)F)cc4)C[C@@H]3C)nc2c(F)c1OC` [Example 61, (R)-3-Amino-1-[(S)-4-(4-amino-8-fluoro-6,7-dimethoxy-quinazolin-2-yl)-3-methyl-piperazin-1-yl]-3-(4-trifluoromethyl-phenyl)-propan-1-one hydrochloride], 40 nM; in that of `COc1cc2c(N)nc(N3CCN(C(=O)C[C@@H](N)Cc4ccccc4)C[C@@H]3C)nc2c(F)c1OC` [Example 62, (S)-3-Amino-1-[(S)-4-(4-amino-8-fluoro-6,7-dimethoxy-quinazolin-2-yl)-3-methyl-piperazin-1-yl]-4-phenyl-butan-1-one hydrochloride], 2250 nM.
On to `COc1cc2c(N)nc(N3CCN(C(=O)C[C@@H](N)Cc4ccncc4)C[C@@H]3C)nc2c(F)c1OC` [Example 63, (S)-3-Amino-1-[(S)-4-(4-amino-8-fluoro-6,7-dimethoxy-quinazolin-2-yl)-3-methyl-piperazin-1-yl]-4-pyridin-4-yl-butan-1-one hydrochloride], for which the midpoint of inhibition, the IC50, lay at 7320 nM.
The same measure, in the same setting: under `CC[C@H]1CN(C(=O)C[C@@H](N)c2ccc(C#N)cc2)CCN1c1nc(N)c2cc(OC)c(OC)c(F)c2n1` [Example 64, 4-{(R)-1-Amino-3-[(S)-4-(4-amino-8-fluoro-6,7-dimethoxy-quinazolin-2-yl)-3-ethyl-piperazin-1-yl]-3-oxo-propyl}-benzonitrile hydrochloride] stands 7 nM; under `CC[C@H]1CN(C(=O)C[C@@H](N)c2ccc(F)cc2)CCN1c1nc(N)c2cc(OC)c(OC)c(F)c2n1` [Example 65, (R)-3-Amino-1-[(S)-4-(4-amino-8-fluoro-6,7-dimethoxy-quinazolin-2-yl)-3-ethyl-piperazin-1-yl]-3-(4-fluoro-phenyl)-propan-1-one hydrochloride], 30 nM.
In the case of `CC[C@H]1CN(C(=O)C[C@@H](N)c2ccc(C(F)(F)F)cc2)CCN1c1nc(N)c2cc(OC)c(OC)c(F)c2n1` [Example 66, (R)-3-Amino-1-[(S)-4-(4-amino-8-fluoro-6,7-dimethoxy-quinazolin-2-yl)-3-ethyl-piperazin-1-yl]-3-(4-trifluoromethyl-phenyl)-propan-1-one hydrochloride], the half-inhibitory concentration (IC50) worked out at 90 nM.
The same measure, in the same setting: in the case of `CCC[C@H]1CN(C(=O)C[C@@H](N)c2ccc(C#N)cc2)CCN1c1nc(N)c2cc(OC)c(OC)c(F)c2n1` [Example 67, 4-{(R)-1-Amino-3-[(S)-4-(4-amino-8-fluoro-6,7-dimethoxy-quinazolin-2-yl)-3-propyl-piperazin-1-yl]-3-oxo-propyl}-benzonitrile hydrochloride] it was 10 nM; in that of `CCC[C@H]1CN(C(=O)C[C@@H](N)c2ccc(C(F)(F)F)cc2)CCN1c1nc(N)c2cc(OC)c(OC)c(F)c2n1` [Example 68, (R)-3-Amino-1-[(S)-4-(4-amino-8-fluoro-6,7-dimethoxy-quinazolin-2-yl)-3-propyl-piperazin-1-yl]-3-(4-trifluoromethyl-phenyl)-propan-1-one hydrochloride], 60 nM; in that of `COc1cc2c(N)nc(N3CCN(C(=O)C[C@@H](N)c4ccc(F)cc4)C[C@@H]3c3ccccc3)nc2c(F)c1OC` [Example 69, (R)-3-Amino-1-[(S)-4-(4-amino-8-fluoro-6,7-dimethoxy-quinazolin-2-yl)-3-phenyl-piperazin-1-yl]-3-(4-fluoro-phenyl)-propan-1-one hydrochloride], 7 nM.
For `COCCOc1c(OC)cc2c(N)nc(N3CCN(C(=O)C[C@@H](N)c4ccc(C#N)cc4)CC3)nc2c1F` [Example 70, 4-((R)-1-Amino-3-{4-[4-amino-8-fluoro-6-methoxy-7-(2-methoxy-ethoxy)-quinazolin-2-yl]-piperazin-1-yl}-3-oxo-propyl)benzonitrile], the concentration for half-maximal inhibition (IC50) under setting [1] came out at 110 nM.
Turning to `COCCOc1c(OC)cc2c(N)nc(N3CCN(C(=O)C[C@@H](N)c4ccc(C#N)cc4)C[C@@H]3C)nc2c1F` [Example 71], the half-maximal inhibitory concentration (IC50) under setting [1] was determined as 70 nM.
On the same count and under the same terms, under `CN[C@H](CC(=O)N1CCN(c2nc(N)c3cc(OC)c(OC)c(F)c3n2)CC1)c1ccccc1` [Example 72, (R)-1-[4-(4-Amino-8-fluoro-6,7-dimethoxy-quinazolin-2-yl)-piperazin-1-yl]-3-methylamino-3-phenyl-propan-1-one] stands 230 nM; under `COc1cc2c(N)nc(N3C[C@@H](C)N(C(=O)C[C@@H](N)c4ccccc4)C[C@@H]3C)nc2c(F)c1OC` [Example 73, (R)-3-Amino-1-[(2R,5S)-4-(4-amino-8-fluoro-6,7-dimethoxy-quinazolin-2-yl)-2,5-dimethyl-piperazin-1-yl]-3-phenyl-propan-1-one], 60 nM; under `COc1cc2c(N)nc(N3C[C@@H](C)N(C(=O)C[C@@H](N)c4ccc(F)cc4)C[C@@H]3C)nc2c(F)c1OC` [Example 74, (R)-3-amino-1-[(2R,5S)-4-(4-amino-8-fluoro-6,7-dimethoxy-quinazolin-2-yl)-2,5-dimethyl-piperazin-1-yl]-3-(4-fluorophenyl)-propan-1-one], 50 nM.
On the same count and under the same terms, under `COc1cc2c(N)nc(N3CCN(C(=O)C[C@@H](N)c4ccccc4)CC3)nc2c(C#N)c1OC` [Example 75, 4-Amino-2-[4-((R)-3-amino-3-phenyl-propionyl)-piperazin-1-yl]-6,7-dimethoxy-quinazoline-8-carbonitrile] stands 760 nM; under `COc1cc2c(N)nc(N3CCN(C(=O)C[C@@H](N)c4ccc(F)cc4)CC3)nc2c(C#N)c1OC` [Example 76, 4-Amino-2-{4-[(R)-3-amino-3-(4-fluoro-phenyl)-propionyl]-piperazin-1-yl}-6,7-dimethoxy-quinazoline-8-carbonitrile], 100 nM; under `CN[C@H](CC(=O)N1CCN(c2nc(N)c3cc(OC)c(OC)c(F)c3n2)CC1)c1ccc(C#N)cc1` [Example 77, (R)-4-(3-(4-(4-amino-8-fluoro-6,7-dimethoxyquinazolin-2-yl)piperazin-1-yl)-1-(methylamino)-3-oxopropyl)benzonitrile], 4 nM.
The same measure, in the same setting: under `CN[C@H](CC(=O)N1CCN(c2nc(N)c3cc(OC)c(OC)c(F)c3n2)CC1)C1CCCCC1` [Example 78, (R)-1-(4-(4-amino-8-fluoro-6,7-dimethoxyquinazolin-2-yl)piperazin-1-yl)-3-cyclohexyl-3-(methylamino)propan-1-one] stands 80 nM.
For `[2H]C([2H])([2H])N[C@H](CC(=O)N1CCN(c2nc(N)c3cc(OC)c(OC)c(F)c3n2)CC1)c1ccccc1` [Example 79, (R)-1-[4-(4-Amino-8-fluoro-6,7-dimethoxy-quinazolin-2-yl)-piperazin-1-yl]-3-d^3-methylamino-3-phenyl-propan-1-one hydrochloride], under setting [1], the IC50 is 50 nM.
On the same count and under the same terms, in the case of `[2H]C([2H])([2H])N[C@H](CC(=O)N1CCN(c2nc(N)c3cc(OC)c(OC)c(F)c3n2)CC1)c1ccc(F)cc1` [Example 80, (R)-1-(4-(4-Amino-8-fluoro-6,7-dimethoxyquinazolin-2-yl)piperazin-1-yl)-3-(4-fluorophenyl)-3-(d^3-methylamino)propan-1-one hydrochloride] it was 6 nM; in that of `COc1cc2c(N)nc(N3CCN(C(=O)C[C@@H](N)c4ccccc4)CC3)nc2c(Br)c1OC` [Example 81, (R)-3-amino-1-(4-(4-Amino-8-bromo-6,7-dimethoxyquinazolin-2-yl)piperazin-1-yl)-3-phenylpropan-1-one], 510 nM; in that of `COc1cc2c(N)nc(N3CCN(C(=O)C[C@@H](N)c4ccc(F)cc4)CC3)nc2c(Cl)c1OC` [Example 82, (R)-3-Amino-1-(4-(4-amino-8-chloro-6,7-dimethoxyquinazolin-2-yl)piperazin-1-yl)-3-(4-fluorophenyl)propan-1-one], 1020 nM.
Consider `COc1cc2nc(N3CCN(C(=O)C[C@@H](N)c4ccc(F)cc4)CC3)nc(N)c2c(F)c1OC` [Example 83, (R)-3-Amino-1-[4-(4-amino-5-fluoro-6,7-dimethoxy-quinazolin-2-yl)-piperazin-1-yl]-3-(4-fluoro-phenyl)-propan-1-one], for which, under setting [1], the half-inhibitory concentration (IC50) came out at 30 nM.
With `CCN[C@H](CC(=O)N1CCN(c2nc(N)c3cc(OC)c(OC)c(F)c3n2)CC1)c1ccc(F)cc1` [Example 84, (R)-1-[4-(4-Amino-8-fluoro-6,7-dimethoxy-quinazolin-2-yl)-piperazin-1-yl]-3-ethylamino-3-(4-fluoro-phenyl)-propan-1-one], under setting [1], the half-inhibitory concentration (IC50) was 6 nM.
Consider `COc1cc2c(N)nc(N3CCN(C(=O)C[C@H](c4ccccc4)N(C)C)CC3)nc2c(F)c1OC` [Example 85, (R)-1-[4-(4-Amino-8-fluoro-6,7-dimethoxy-quinazolin-2-yl)-piperazin-1-yl]-3-dimethylamino-3-phenyl-propan-1-one], for which the IC50 under setting [1] was determined as 80 nM.
For the molecule `COc1cc2c(N)nc(N3CCN(C(=O)C[C@H](c4ccc(F)cc4)N(C)C)CC3)nc2c(F)c1OC` [Example 86], under setting [1], the IC50 came out at 40 nM.
